From patent publication US10954269B2, “Anti-inflammatory tripeptides” (Dr. August Wolff Gmbh & Co. KG Arzneimittel, priority 2013, dated 2021)
[ ]: non-standard residue; d: D form. Aib = CC(C)(N)C(=O)O

Test system: human keratinocyte cell line (HaCaT)
Test: Cytokine secretion on protein level in activated human keratinocyte cell line HaCaT (13-plex FACS / Luminex, supernatant)
Format: cell-based
How it was run: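 Primary T-cells from peripheral blood of healthy volunteers, or HaCaT cells, were activated with PMA/Ionomycin or IFN-γ for 48 h and treated with tripeptides. Supernatants were collected 48 h and 72 h after stimulation and cytokines (IL-1, IL-2, IL-6, IL-12p70, IL-17, IFN-γ, TNF-α) were measured by 13-plex FACS.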

[1] = HaCaT stimulated with IFN-γ, 10^−9M
[2] = HaCaT stimulated with IFN-γ, 10^−9M, excluded from the final assessment
[3] = HaCaT stimulated with IFN-γ, substance 10^−9M
[4] = HaCaT stimulated with PBS, 10^−9M
[5] = HaCaT stimulated with PBS, 10^−9M, excluded from the final assessment
[6] = HaCaT stimulated with PBS, substance 10^−9M
[7] = HaCaT stimulated with PMA/Ionomycin, 10^−9M
[8] = HaCaT stimulated with PMA/Ionomycin, 10^−9M, excluded from the final assessment
[9] = HaCaT stimulated with PMA/Ionomycin, substance 10^−9M

## H-Lys-[dP]-Thr-OH [K(D)PT, reference compound]
[1]
  IL-1 cytokine concentration: 257.77 pg/mL
  IL-2 cytokine concentration: 129.65 pg/mL
  IL-4 cytokine concentration: 84.61 pg/mL
  IL-5 cytokine concentration: 166.92 pg/mL
  IL-6 cytokine concentration: 728.31 pg/mL
  IL-9 cytokine concentration: 83.09 pg/mL
  IL-10 cytokine concentration: 73.19 pg/mL
  IL-13 cytokine concentration: 59.62 pg/mL
  IL-17 cytokine concentration: 664.43 pg/mL
  TNF-α cytokine concentration: 100.07 pg/mL
[2]
  IL-12p70 cytokine concentration: 0 pg/mL
  IL-22 cytokine concentration: 0 pg/mL
[3]
  IL-1 cytokine concentration: 0 pg/mL
  IL-2 cytokine concentration: 131.59 pg/mL
  IL-4 cytokine concentration: 52.4 pg/mL
  IL-5 cytokine concentration: 0 pg/mL
  IL-6 cytokine concentration: 238.12 pg/mL
  IL-9 cytokine concentration: 0 pg/mL
  IL-10 cytokine concentration: 0 pg/mL
  IL-12 cytokine concentration: 0 pg/mL
  IL-12p70 cytokine concentration: 0 pg/mL
  IL-13 cytokine concentration: 0 pg/mL
  IL-17 cytokine concentration: 112.82 pg/mL
  IL-22 cytokine concentration: 0 pg/mL
  TNF-α cytokine concentration: 50.44 pg/mL
[4]
  IFN-γ cytokine concentration: 395.55 pg/mL
  IL-1 cytokine concentration: 228.99 pg/mL
  IL-2 cytokine concentration: 201.9 pg/mL
  IL-4 cytokine concentration: 85.48 pg/mL
  IL-5 cytokine concentration: 201.01 pg/mL
  IL-6 cytokine concentration: 72.95 pg/mL
  IL-9 cytokine concentration: 132.74 pg/mL
  IL-10 cytokine concentration: 125.52 pg/mL
  IL-13 cytokine concentration: 60.72 pg/mL
  IL-17 cytokine concentration: 618.22 pg/mL
  TNF-α cytokine concentration: 90.41 pg/mL
[5]
  IL-12p70 cytokine concentration: 0 pg/mL
  IL-22 cytokine concentration: 10982.2 pg/mL
[6]
  IFN-γ cytokine concentration: 99.65 pg/mL
  IL-1 cytokine concentration: 65.11 pg/mL
  IL-2 cytokine concentration: 0 pg/mL
  IL-4 cytokine concentration: 144.86 pg/mL
  IL-5 cytokine concentration: 0 pg/mL
  IL-6 cytokine concentration: 78.34 pg/mL
  IL-9 cytokine concentration: 5.27 pg/mL
  IL-10 cytokine concentration: 31.43 pg/mL
  IL-12 cytokine concentration: 0 pg/mL
  IL-12p70 cytokine concentration: 0 pg/mL
  IL-13 cytokine concentration: 0 pg/mL
  IL-17 cytokine concentration: 0 pg/mL
  IL-22 cytokine concentration: 0 pg/mL
  TNF-α cytokine concentration: 9.34 pg/mL
[7]
  IFN-γ cytokine concentration: 736.13 pg/mL
  IL-1 cytokine concentration: 212.49 pg/mL
  IL-2 cytokine concentration: 179.25 pg/mL
  IL-4 cytokine concentration: 70.92 pg/mL
  IL-5 cytokine concentration: 157.36 pg/mL
  IL-6 cytokine concentration: 130.87 pg/mL
  IL-9 cytokine concentration: 147.79 pg/mL
  IL-10 cytokine concentration: 84.32 pg/mL
  IL-13 cytokine concentration: 62.95 pg/mL
  IL-17 cytokine concentration: 487.56 pg/mL
  TNF-α cytokine concentration: 116.88 pg/mL
[8]
  IL-12p70 cytokine concentration: 0 pg/mL
  IL-22 cytokine concentration: 10698.1 pg/mL
[9]
  IFN-γ cytokine concentration: 0 pg/mL
  IL-1 cytokine concentration: 0 pg/mL
  IL-2 cytokine concentration: 0 pg/mL
  IL-4 cytokine concentration: 129.6 pg/mL
  IL-5 cytokine concentration: 0 pg/mL
  IL-6 cytokine concentration: 282.85 pg/mL
  IL-9 cytokine concentration: 0 pg/mL
  IL-10 cytokine concentration: 118.77 pg/mL
  IL-12 cytokine concentration: 0 pg/mL
  IL-12p70 cytokine concentration: 0 pg/mL
  IL-13 cytokine concentration: 0 pg/mL
  IL-17 cytokine concentration: 0 pg/mL
  IL-22 cytokine concentration: 0 pg/mL
  TNF-α cytokine concentration: 0 pg/mL

## H-Phe-Pro-[Aib]-OH [Example 13]
[3]
  IL-1 cytokine concentration: 0 pg/mL
  IL-2 cytokine concentration: 0 pg/mL
  IL-4 cytokine concentration: 76.13 pg/mL
  IL-5 cytokine concentration: 0 pg/mL
  IL-6 cytokine concentration: 255.5 pg/mL
  IL-9 cytokine concentration: 0 pg/mL
  IL-10 cytokine concentration: 7.59 pg/mL
  IL-12p70 cytokine concentration: 0 pg/mL
  IL-13 cytokine concentration: 0 pg/mL
  IL-17 cytokine concentration: 34.2 pg/mL
  IL-22 cytokine concentration: 0 pg/mL
  TNF-α cytokine concentration: 0 pg/mL
[6]
  IFN-γ cytokine concentration: 0 pg/mL
  IL-1 cytokine concentration: 17.16 pg/mL
  IL-2 cytokine concentration: 14.24 pg/mL
  IL-4 cytokine concentration: 132.37 pg/mL
  IL-5 cytokine concentration: 0 pg/mL
  IL-6 cytokine concentration: 74.11 pg/mL
  IL-9 cytokine concentration: 0 pg/mL
  IL-10 cytokine concentration: 74.67 pg/mL
  IL-12p70 cytokine concentration: 0 pg/mL
  IL-13 cytokine concentration: 1948.04 pg/mL
  IL-17 cytokine concentration: 0 pg/mL
  IL-22 cytokine concentration: 0 pg/mL
  TNF-α cytokine concentration: 6.94 pg/mL
[9]
  IFN-γ cytokine concentration: 0 pg/mL
  IL-1 cytokine concentration: 0 pg/mL
  IL-2 cytokine concentration: 0 pg/mL
  IL-4 cytokine concentration: 91.99 pg/mL
  IL-5 cytokine concentration: 0 pg/mL
  IL-6 cytokine concentration: 216.69 pg/mL
  IL-9 cytokine concentration: 0 pg/mL
  IL-10 cytokine concentration: 41.86 pg/mL
  IL-12p70 cytokine concentration: 0 pg/mL
  IL-13 cytokine concentration: 0 pg/mL
  IL-17 cytokine concentration: 21.33 pg/mL
  IL-22 cytokine concentration: 0 pg/mL
  TNF-α cytokine concentration: 0 pg/mL
Activated human keratinocytes
  secretion / expression of pro-inflammatory cytokines (supernatant): decreased expression
